In patent US20060281755A1, “SYNERGISTIC MODULATION OF FLT3 KINASE USING AMINOPYRIMIDINES KINASE MODULATORS” (priority 2005, published 2006) one finds IC50 data, which are given here for 13 molecules.

Assay [1] has as its system MV4-11 cells. The experiment in a line: Inhibition of MV4-11 cell proliferation (CellTiterGlo). As to conditions: Homo sapiens, MV4-11, 72 h, read-out: MV4-11 (uM). In general terms: In ATP-based viability assays light output follows the ATP content of the culture.
Protocol: To measure total cell growth an equal volume of CellTiterGlo reagent was added to each well, according to the manufacturer's instructions, and luminescence was quantified.
MV4-11 cells express the FLT3 internal tandem duplication mutation, and thus are entirely dependent upon FLT3 activity for growth. […] In contrast, the Baf3 cell proliferation is driven by the cytokine IL-3 and thus are used as a non-specific toxicity control for test compounds.
Assay [2] has as its target T1, isolated kinase domain of the human FLT3 receptor (a.a. 571-993) (Homo sapiens, UniProt P36888).
T1 construct: human FLT3 receptor (a.a. 571-993)
T1 sequence (P36888 571-993): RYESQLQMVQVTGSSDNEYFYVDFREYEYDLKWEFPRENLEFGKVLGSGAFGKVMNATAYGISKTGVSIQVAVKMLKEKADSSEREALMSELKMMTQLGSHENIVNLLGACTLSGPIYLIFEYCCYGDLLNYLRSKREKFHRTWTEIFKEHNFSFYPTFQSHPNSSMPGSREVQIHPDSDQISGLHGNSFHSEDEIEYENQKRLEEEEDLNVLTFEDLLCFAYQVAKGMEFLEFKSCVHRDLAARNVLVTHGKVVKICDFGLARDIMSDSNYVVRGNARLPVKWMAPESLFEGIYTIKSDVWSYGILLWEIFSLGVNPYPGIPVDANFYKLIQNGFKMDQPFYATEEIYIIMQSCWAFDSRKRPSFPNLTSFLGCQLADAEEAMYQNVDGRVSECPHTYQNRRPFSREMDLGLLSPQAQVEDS
Briefly: FLT3 fluorescence polarization kinase assay. Type of assay: biochemical. As to conditions: uncertainty ±10%. The text has this:
The FLT3 FP assay utilizes the fluorescein-labeled phosphopeptide and the anti-phosphotyrosine antibody included in the Panvera Phospho-Tyrosine Kinase Kit (Green) supplied by Invitrogen. When FLT3 phosphorylates polyGlu4Tyr, the fluorescein-labeled phosphopeptide is displaced from the anti-phosphotyrosine antibody by the phosphorylated poly Glu4Tyr, thus decreasing the FP value. […] The kinase reaction is stopped with the addition of EDTA. The fluorescein-labeled phosphopeptide and the anti-phosphotyrosine antibody are added and incubated for 30 minutes at room temperature.
Background: In fluorescence polarisation assays a small probe gives low polarisation when free and higher when bound to something large.

The target of assay [3] is T2, FLT ligand-induced wild-type FLT3 phosphorylation in Baf3 FLT3 cells (Homo sapiens, UniProt P36888).
T2 sequence (P36888 27-993): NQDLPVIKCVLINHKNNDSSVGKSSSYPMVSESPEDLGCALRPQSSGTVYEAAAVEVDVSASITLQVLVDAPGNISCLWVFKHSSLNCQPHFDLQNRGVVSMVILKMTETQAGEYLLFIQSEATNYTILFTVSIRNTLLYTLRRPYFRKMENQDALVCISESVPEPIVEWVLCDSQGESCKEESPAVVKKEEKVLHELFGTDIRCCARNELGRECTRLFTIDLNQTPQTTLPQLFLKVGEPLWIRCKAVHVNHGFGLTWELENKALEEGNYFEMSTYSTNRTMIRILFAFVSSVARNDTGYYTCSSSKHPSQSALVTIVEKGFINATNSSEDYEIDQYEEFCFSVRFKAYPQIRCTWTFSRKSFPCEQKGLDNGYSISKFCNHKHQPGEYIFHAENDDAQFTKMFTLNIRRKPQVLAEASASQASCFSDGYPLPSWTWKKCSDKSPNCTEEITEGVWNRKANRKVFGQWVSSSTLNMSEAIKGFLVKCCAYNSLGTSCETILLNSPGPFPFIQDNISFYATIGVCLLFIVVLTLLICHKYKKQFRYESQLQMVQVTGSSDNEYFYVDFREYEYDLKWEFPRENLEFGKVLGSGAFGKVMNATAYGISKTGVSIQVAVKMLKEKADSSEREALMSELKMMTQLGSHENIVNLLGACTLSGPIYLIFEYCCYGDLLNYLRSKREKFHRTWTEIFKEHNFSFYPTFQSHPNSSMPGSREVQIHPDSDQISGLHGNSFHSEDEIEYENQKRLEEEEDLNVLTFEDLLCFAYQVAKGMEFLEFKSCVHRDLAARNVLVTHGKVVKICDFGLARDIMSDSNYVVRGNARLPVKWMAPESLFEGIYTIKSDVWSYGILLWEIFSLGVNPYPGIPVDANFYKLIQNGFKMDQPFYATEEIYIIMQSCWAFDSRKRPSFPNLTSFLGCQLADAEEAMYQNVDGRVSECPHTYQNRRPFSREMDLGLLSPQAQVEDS
Briefly: Cell-based FLT3 receptor ELISA.
Protocol: Specific cellular inhibition of FLT ligand-induced wild-type FLT3 phosphorylation was measured in the following manner: Baf3 FLT3 cells overexpressing the FLT3 receptor were obtained from Dr. Michael Heinrich (Oregon Health and Sciences University).

SMILES strings stand for the structures.

As for `CC(C)Oc1ccc(NC(=O)N2CCN(c3ncnc(N)c3/C=N/OCCN)CC2)cc1` [Compound 25, 4-{6-Amino-5-[(2-amino-ethoxyimino)-methyl]-pyrimidin-4-yl}-piperazine-1-carboxylic acid (4-isopropoxy-phenyl)-amide], the results for the IC50 in assay [1] and in assay [2] were 2 µM and 1150 nM, respectively.
Take `CCO/N=C/c1c(N)ncnc1N1CCN(C(=O)Cc2ccc(C(C)C)cc2)CC1` [Compound 13, 4-Amino-6-{4-[2-(4-isopropyl-phenyl)-acetyl]-piperazin-1-yl}-pyrimidine-5-carbaldehyde O-ethyl-oxime (anti-configuration for —C═N—O—)]: the IC50 in assay [3] amounted to 116 nM; in assay [1] it was 0.013 µM; in assay [2], 8 nM.
As for `CS(=O)(=O)NCCO/N=C/c1c(N)ncnc1N1CCN(C(=O)Nc2ccc(OC3CCC3)nc2)CC1` [Compound 33, 4-{6-Amino-5-[(2-methanesulfonylamino-ethoxyimino)-methyl]-pyrimidin-4-yl}-piperazine-1-carboxylic acid (6-cyclobutoxy-pyridin-3-yl)-amide], the IC50 in assay [1] was determined as 2.8 µM; in assay [2], 1150 nM.
Turning to `Nc1ncnc(N2CCN(C(=O)Nc3ccc(N4CCOCC4)cc3)CC2)c1/C=N/OCCN1CCOCC1` [Compound 29, 4-{6-Amino-5-[(2-morpholin-4-yl-ethoxyimino)-methyl]-pyrimidin-4-yl}-piperazine-1-carboxylic acid (4-morpholin-4-yl-phenyl)-amide], the IC50 in assay [1] was 3 µM; in assay [2], greater than 10000 nM.
With `CO/N=C/c1c(N)ncnc1N1CCN(C(=O)Cc2ccc(C(C)C)cc2)CC1` [Compound 7, 4-Amino-6-{4-[2-(4-isopropyl-phenyl)-acetyl]-piperazin-1-yl}-pyrimidine-5-carbaldehyde O-methyl-oxime], the IC50 in assay [3] was found to be 2 nM; in assay [1], 0.024 µM; in assay [2], 14 nM.
As for `CCO/N=C/c1c(N)ncnc1N1CCN(C(=O)Nc2ccc(N3CCOCC3)cc2)CC1` [Compound 15, 4-[6-Amino-5-(ethoxyimino-methyl)-pyrimidin-4-yl]-piperazine-1-carboxylic acid (4-morpholin-4-yl-phenyl)-amide], the values for the IC50 in assay [3], in assay [1] and in assay [2] were 735 nM, 0.35 µM and 126 nM, respectively.
With `NCCO/N=C/c1c(N)ncnc1N1CCN(C(=O)Nc2ccc(N3CCOCC3)cc2)CC1` [Compound 32, 4-{6-Amino-5-[(2-amino-ethoxyimino)-methyl]-pyrimidin-4-yl}-piperazine-1-carboxylic acid (4-morpholin-4-yl-phenyl)-amide], the IC50 worked out at 77 nM in assay [3], 0.79 µM in assay [1] and 5150 nM in assay [2].
For `CO/N=C/c1c(N)ncnc1N1CCCN(C(=O)Nc2ccc(OC(C)C)cc2)CC1` [Compound 24, 4-[6-Amino-5-(methoxyimino-methyl)-pyrimidin-4-yl]-[1,4]diazepane-1-carboxylic acid (4-isopropoxy-phenyl)-amide], in that order: 16 nM, 0.66 µM and 122 nM.
For the molecule `NCCO/N=C/c1c(N)ncnc1N1CCN(C(=O)Nc2ccc(OC3CCC3)nc2)CC1` [Compound 31, 4-{6-Amino-5-[(2-amino-ethoxyimino)-methyl]-pyrimidin-4-yl}-piperazine-1-carboxylic acid (6-cyclobutoxy-pyridin-3-yl)-amide], the IC50 in assay [3] is 206 nM; in assay [1], 1.3 µM; in assay [2], 1450 nM.
In the case of `CCO/N=C\c1c(N)ncnc1N1CCN(C(=O)Cc2ccc(C(C)C)cc2)CC1` [Compound 14, 4-Amino-6-{4-[2-(4-isopropyl-phenyl)-acetyl]-piperazin-1-yl}-pyrimidine-5-carbaldehyde O-ethyl-oxime (syn-configuration for —C═N—O—)], the IC50 in assay [3] was 158 nM; in assay [1] it was 0.029 µM; in assay [2] it was 24 nM.
Consider `Nc1ncnc(N2CCN(C(=O)Nc3ccc(OC4CCC4)nc3)CC2)c1/C=N/OCCN1CCOCC1` [Compound 30, 4-{6-Amino-5-[(2-morpholin-4-yl-ethoxyimino)-methyl]-pyrimidin-4-yl}-piperazine-1-carboxylic acid (6-cyclobutoxy-pyridin-3-yl)-amide], for which the results for the IC50 in assay [1] and in assay [2] were 2.5 µM and 1740 nM, respectively.
For the molecule `NCCO/N=C/c1c(N)ncnc1N1CCN(C(=O)Nc2ccc(N3CCCC3)cc2)CC1` [Compound 34, 4-{6-Amino-5-[(2-amino-ethoxyimino)-methyl]-pyrimidin-4-yl}-piperazine-1-carboxylic acid (4-pyrrolidin-1-yl-phenyl)-amide], the results for the IC50 in assay [1] and in assay [2] were 2.5 µM and 1510 nM, respectively.
For `CCNC(=O)NCCO/N=C/c1c(N)ncnc1N1CCN(C(=O)Nc2ccc(OC(C)C)cc2)CC1` [Compound 26, 4-(6-Amino-5-{[2-(3-ethyl-ureido)-ethoxyimino]-methyl}-pyrimidin-4-yl)-piperazine-1-carboxylic acid (4-isopropoxy-phenyl)-amide], the IC50 in assay [1] was greater than 1 µM.
